Data published in patent US9200071B2, “Methods of treating cancer using Notch1 and Notch3 antagonists” (Genentech, Inc., priority 2009, dated 2015).

How the values were obtained:
Format in all cases: cell-based, human
P-12 Ichikawa cell line [1] = experiment: Cell cycle status by propidium iodide FACS (growth sensitivity); settings: eight days; DAPT 5 μM, anti-NRR1 5 μg/ml; FIG. 3A-3D
Method: (§1) FIGS. 3-5 presents the classification of three representative human T-ALL cell lines. Those cell lines include the P-12 Ichikawa cell line, the HPB-ALL cell line, and the TALL-1 cell line. The cells were grown for eight days in control conditions (DMSO alone (the vehicle for DAPT) or anti-gD (an isotype control antibody)); in the presence of the gamma-secretase inhibitor, DAPT (5 μM); or in the presence of anti-NRR1 (5 μg/ml). The cells were fixed, stained with propidium iodide and prepared for FACS to analyze the cell cycle status, according to standard procedures. […] HPB-ALL cells are sensitive to both DAPT and anti-NRR1 (FIG. 4A-4D), with DAPT- and anti-NRR1-treated cells showing about 78% and 76% of cells in G0/G1, respectively, compared to about 33-34% of the control cells. TALL-1 cells are sensitive to DAPT but resistant to anti-NRR1 (FIG. 5A-5D), with about 87% of DAPT-treated cells in G0/G1, compared to about 55% of anti-NRR1-treated cells and about 53-54% of control cells. It is noted that Notch1 is not mutated in TALL-1 cells. […] (Data not shown and FIG. 10.)

CCRF-CEM cells = experiment: as above; settings: eight days; DAPT 5 μM, anti-NRR1 5 μg/ml, anti-NRR3 10 μg/ml; FIG. 10A-10F
Method: as §1
(§2) As described above, two of the three classes of T-ALL, represented by HPB-ALL and TALL-1, are both sensitive to GSI but differ in that the former is sensitive to anti-NRR1, whereas the latter is not. […] To address this question, CCRF-CEM cells, HPB-ALL cells, and TALL-1 cells were treated as described for FIGS. 3-5, except that a Notch3-specific antagonist was also included at 10 μg/ml in a subset of the treatments to test whether growth depended on Notch3 signaling. The Notch3-specific antagonist used in these studies was mouse anti-human Notch3 monoclonal antibody 256A-4, the isolation and characterization of which are discussed in U.S. Patent Application Publication No. US 2008/0226621 A1. For convenience, 256A-4 is referred to herein as “anti-NRR3,” and is also referred to as “α-N3” in the figures.

HPB-ALL cell line [2] = experiment: as above; settings: eight days, DAPT 5 μM, anti-NRR1 5 μg/ml
Method: as §1, §2

TALL-1 cell line [3] = experiment: as above; settings: eight days, DAPT 5 μM, anti-NRR1 5 μg/ml; for percentage of cells in G0/G1: control cells about 53-54%
Method: as §1, §2

HPB-ALL cell line [4] = experiment: Cell diameter measurement (Vi-Cell cell counter); settings: approximately one week; DAPT 5 μM, anti-NRR1 5 μg/ml; FIG. 6
Method: (§3) The P-12 Ichikawa cell line, the HPB-ALL cell line, and the TALL-1 cell line were grown for approximately one week in control conditions (DMSO alone (the vehicle for DAPT) or anti-gD (an isotype control antibody)); in the presence of the gamma-secretase inhibitor, DAPT (5 μM); or in the presence of anti-NRR1 (5 μg/ml). Cell diameter was measured using a cell counter (Vi-Cell, Beckman Coulter). Consistent with the growth inhibition studies, the P-12 Ichikawa line is resistant to both DAPT and anti-NRR1, as indicated by relatively consistent cell diameter among treated and control cells.

P-12 Ichikawa cell line [5] = experiment: Cell diameter measurement (Vi-Cell cell counter); settings: approximately one week; DAPT 5 μM, anti-NRR1 5 μg/ml; FIG. 6
Method: as §3

TALL-1 cell line [6] = experiment: Cell diameter measurement (Vi-Cell cell counter); settings: approximately one week; DAPT 5 μM, anti-NRR1 5 μg/ml; FIG. 6
Method: as §3

HPB-ALL cell line [7] = experiment: Apoptosis by Annexin V / 7-AAD FACS; settings: approximately one week; DAPT 5 μM, anti-NRR1 5 μg/ml; FIG. 7
Method: (§4) The P-12 Ichikawa cell line, the HPB-ALL cell line, and the TALL-1 cell line were treated as described above for FIG. 6. The cells were analyzed by FACS, with staining for 7-AAD (cell death marker) on the x-axis of FIG. 7, and staining for Annexin V (marker for apoptosis) on the y-axis of FIG. 7. […] In contrast, P-12 Ichikawa cells are resistant to both treatments, whereas TALL-1 cells are sensitive to DAPT but not to anti-NRR1.

P-12 Ichikawa cell line [8] = experiment: Apoptosis by Annexin V / 7-AAD FACS; settings: approximately one week; DAPT 5 μM, anti-NRR1 5 μg/ml; FIG. 7
Method: as §4

TALL-1 cell line [9] = experiment: Apoptosis by Annexin V / 7-AAD FACS; settings: approximately one week; DAPT 5 μM, anti-NRR1 5 μg/ml; FIG. 7
Method: as §4

HPB-ALL cell line [10] = experiment: Cell proliferation assay by Ki-67 staining FACS; settings: approximately one week; DAPT 5 μM, anti-NRR1 5 μg/ml; FIG. 8 left panel
Method: (§5) The P-12 Ichikawa cell line, the HPB-ALL cell line, and the TALL-1 cell line were treated as described above for FIG. 6. The cells were analyzed by FACS using Ki-67 staining to mark proliferation (left panel). A shift in the FACS peak to the left indicates lower staining for Ki-67 and decreased proliferation, and conversely, a shift in the FACS peak to the right indicates higher staining for Ki-67 and increased proliferation. Based on this proliferation assay, HPB-ALL was sensitive to both DAPT and anti-NRR1, TALL-1 was sensitive to DAPT but not anti-NRR1, and P-12 Ichikawa cells were resistant to both. […] Low cell counts (i.e., low numbers of Annexin V/7-AAD double negative (non-apoptotic) cells) indicate increased apoptosis, which in turn correlate with decreased proliferation in the left hand panel.

P-12 Ichikawa cell line [11] = experiment: Cell proliferation assay by Ki-67 staining FACS; settings: approximately one week; DAPT 5 μM, anti-NRR1 5 μg/ml; FIG. 8 left panel
Method: as §5

TALL-1 cell line [12] = experiment: Cell proliferation assay by Ki-67 staining FACS; settings: approximately one week; DAPT 5 μM, anti-NRR1 5 μg/ml; FIG. 8 left panel
Method: as §5

[13] = test system: activated Notch3 in TALL-1; experiment: Immunoblot of nuclear fractions with anti-Notch3 ICD antibody; settings: TALL-1 nuclear fractions; FIG. 13 lower panel
Text: (§6) This new anti-Notch3 ICD antibody was then used to investigate the activation status of Notch3 in the three classes of T-ALL. […] 3T3 cells expressing Notch1 (3T3-N1) and MDA-MB-468 (MB468) cells were used as controls. Consistent with the growth inhibition studies described in the previous figures, TALL-1 expresses high levels of activated Notch3 but not activated Notch1 (compare TALL-1 lanes in lower and upper panels, respectively). Furthermore, production of activated Notch3 in TALL-1 could be blocked by DAPT but not anti-NRR1 (lower panel). Moreover, as expected, HPB-ALL cells express high levels of activated Notch1, which can be blocked by DAPT or anti-NRR1 antibody (see HPB-ALL lanes in upper panel). As to the controls, activated Notch1 is seen as a lighter, up-shifted band in the 3T3-N1 cells treated with Jagged (+jag) (upper panel).

[14] = test system: activated Notch1 in HPB-ALL cells; experiment: Immunoblot of nuclear fractions with anti-Notch1 Val1744; settings: FIG. 13 upper panel
Text: as §6

[15] = test system: activated Notch3 in MDA-MB-468 cells; experiment: Immunoblot of MDA-MB-468 cells treated with anti-Notch3 agonist antibody; settings: in the absence of DAPT, FIG. 13 lower panel
Text: as §6

[16] = anti-NRR3 10 μg/ml, FIG. 11A-11F

`C[C@H](NC(=O)Cc1cc(F)cc(F)c1)C(=O)N[C@H](C(=O)OC(C)(C)C)c1ccccc1` [DAPT, N—[N-(3,5-difluorophenacetyl)-L-alanyl]-S-phenylglycine t-butyl ester] was tested, and the “growth sensitivity (cell cycle status)” value (P-12 Ichikawa cell line [1]) was “resistant”, the “growth sensitivity (cell cycle status)” value (CCRF-CEM cells) was “resistant” and the “growth sensitivity (cell cycle status)” value (HPB-ALL cell line [2]; [16]) was “sensitive”. The “percentage of cells in G0/G1” value (HPB-ALL cell line [2]; [16]) was “about 67%”, the “growth sensitivity (cell cycle status)” value (HPB-ALL cell line [2]; FIG. 4A-4D) was “sensitive” and the “percentage of cells in G0/G1” value (HPB-ALL cell line [2]; FIG. 4A-4D, control cells about 33-34%) was “about 78%”. For the same molecule, the “percentage of cells in G0/G1” value (TALL-1 cell line [3]; anti-NRR3 10 μg/ml, FIG. 9A-9F) was roughly 83%, the “growth sensitivity (cell cycle status)” value (TALL-1 cell line [3]; FIG. 5A-5D) was “sensitive” and the “percentage of cells in G0/G1” value (TALL-1 cell line [3]; FIG. 5A-5D) was “about 87%”. For the same molecule, the “cell diameter (cell size) versus control” value (HPB-ALL cell line [4]) was “significantly smaller size”, the “cell diameter (cell size) versus control” value (P-12 Ichikawa cell line [5]) was “resistant” and the “cell diameter (cell size) versus control” value (TALL-1 cell line [6]) was “significantly smaller size”. For the same molecule, the “apoptotic cell death (Annexin V/7-AAD double positive population)” value (shortened to “apoptotic cell death”) (HPB-ALL cell line [7]) was “increases apoptotic cell death”, the “apoptotic cell death” value (P-12 Ichikawa cell line [8]) was “resistant” and the “apoptotic cell death” value (TALL-1 cell line [9]) was “sensitive”. The “proliferation (Ki-67 staining)” value (HPB-ALL cell line [10]) was “sensitive”, the “proliferation (Ki-67 staining)” value (P-12 Ichikawa cell line [11]) was “resistant” and the “proliferation (Ki-67 staining)” value (TALL-1 cell line [12]) was “sensitive”. The “production of activated Notch3 (nuclear fraction immunoblot)” value [13] was “blocked” and the “activated Notch1 levels (nuclear fraction immunoblot)” value [14] was “blocked”.

B1: A13: anti-Notch3 agonist antibody described in US 2008/0118520 A1 as 256A-13 (antibody, V domains shown)
VH: SQVQLQQSGAELAKPGTSVKMACKASGYTFTTHWMNWVKQRPGQGLEWIGTINPSNDFTDCNQKFKDKAILTADKSSSTAYMQLSSLTSEDSAIYYCASGLTARAWFAYWGQGTLVTVSAA
VL: RATISCRASQSVTTSNYSYMHWFQQKPGQPPKLLIKYASNLDSGVPARFSGSGSGTDFTLNIHPVEEEDTATFYCQHSWEIPYTFGGGTNLEIKRADAAPTV
In the case of B1, the “activated Notch3 band after agonist antibody treatment” value [15] is reported as “faint but detectable band”.
